Reference: US20240041042A1, “1-(PYRIDYL)-5-AZINYLPYRAZOLE DERIVATIVES, AND THEIR USE FOR CONTROL OF UNDESIRED PLANT GROWTH” (Bayer Aktiengesellschaft, priority 2020, published 2024)
Read-outs that look alike come from different tables or passages of the source.

Experiments:
Format in all cases: in vivo
[1] = system: Alopecurus myosuroides (ALOMY); assay: Pre-emergence herbicidal action against ALOMY; details: scored visually after about 3 weeks, 100% = plants have died
Procedure, shortened: (§1)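 Pre-emergence soil-surface spray of compound, formulated as wettable powder or emulsion concentrate, in aqueous suspension or emulsion with 0.5% additive (600 l/ha; rate 320 g/ha or less). Activity rated visually after roughly 3 weeks in the greenhouse as a percentage of untreated controls, 0% meaning no difference.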

[2] = system: Amaranthus retroflexus (AMARE); assay: Pre-emergence herbicidal action against AMARE; details: visual scoring after about 3 weeks vs untreated controls
Procedure, shortened: as §1

[3] = system: Avena fatua (AVEFA); assay: Pre-emergence herbicidal action against AVEFA; details: visual scoring after about 3 weeks vs untreated controls
Procedure, shortened: as §1

[4] = system: Digitaria sanguinalis (DIGSA); assay: Pre-emergence herbicidal action against DIGSA
Procedure, shortened: as §1

[5] = system: Echinochloa crus-galli (ECHCG); assay: Pre-emergence herbicidal action against ECHCG
Procedure, shortened: as §1

[6] = system: Lolium rigidum (LOLRI); assay: Pre-emergence herbicidal action against LOLRI; details: dosage 320 g/ha
Procedure, shortened: as §1

[7] = system: Matricaria inodora (MATIN); assay: Pre-emergence herbicidal action against MATIN; details: dosage 320 g/ha
Procedure, shortened: as §1

[8] = system: Polygonum convolvulus (POLCO); assay: Pre-emergence herbicidal action against POLCO
Procedure, shortened: as §1

[9] = system: Setaria viridis (SETVI); assay: Pre-emergence herbicidal action against SETVI; details: dosage 320 g/ha
Procedure, shortened: as §1

[10] = system: Viola tricolor (VIOTR); assay: Pre-emergence herbicidal action against VIOTR
Procedure, shortened: as §1

[11] = system: Oryza sativa (ORYSA); details: pre-emergence, 80 g/ha, crop plant compatibility, in comparison to untreated controls
Procedure, shortened: (§2)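 Scoring: visual, % of untreated control, about 3 weeks after a pre-emergence application to the soil surface. Application used WP or EC formulations diluted in water with 0.5% additive at 600 l/ha; dosage levels are marked by suffixes a, b and c.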

[12] = system: Triticum aestivum (TRZAS); details: pre-emergence, 80 g/ha, crop plant compatibility, in comparison to untreated controls
Procedure, shortened: as §2

[13] = system: Abutilon theophrasti (ABUTH); assay: Post-emergence herbicidal action against ABUTH; details: 80 g/ha, visual rating about 3 weeks after treatment vs untreated controls (100% = plants have died, 0% = like control plants)
Procedure, shortened: (§3)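 Greenhouse plants sprayed at the one-leaf stage, 2–3 weeks after sowing, with WP or EC formulations plus 0.5% additive at 600 l/ha water. Activity rated visually after about 3 weeks versus untreated controls (100% = dead, 0% = like control), at 320 g/ha or lower.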

[14] = system: Alopecurus myosuroides (ALOMY); assay: Post-emergence herbicidal action against ALOMY; details: 80 g/ha, visual rating about 3 weeks after treatment vs untreated controls (100% = plants have died, 0% = like control plants)
Procedure, shortened: as §3

[15] = system: Amaranthus retroflexus (AMARE); assay: Post-emergence herbicidal action against AMARE; details: 80 g/ha, visual rating about 3 weeks after treatment vs untreated controls (100% = plants have died, 0% = like control plants)
Procedure, shortened: as §3

[16] = system: Echinochloa crus-galli (ECHCG); assay: Post-emergence herbicidal action against ECHCG; details: dosage 80 g/ha
Procedure, shortened: as §3

[17] = system: Pharbitis purpurea (PHBPU); assay: Post-emergence herbicidal action against PHBPU; details: dosage 80 g/ha
Procedure, shortened: as §3

[18] = system: Setaria viridis (SETVI); assay: Post-emergence herbicidal action against SETVI; details: dosage 80 g/ha
Procedure, shortened: as §3

[19] = system: Verconica persica (VERPE); assay: Post-emergence herbicidal action against VERPE; details: dosage 80 g/ha
Procedure, shortened: as §3

[20] = system: Oryza sativa (ORYSA); details: crop plant compatibility
Procedure, shortened: (§4)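 Greenhouse crops in sandy loam sprayed post-emergence at the one-leaf stage, 2–3 weeks after sowing, with WP or EC formulations in water plus 0.5% additive at 600 l/ha. Damage rated visually about 3 weeks later versus untreated controls (0% = like control, 100% = dead); suffixes a–c denote different doses.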

[21] = system: Triticum aestivum (TRZAS); details: crop plant compatibility, 20 g/ha, effect vs untreated controls
Procedure, shortened: as §4

[22] = system: Zea mays (ZEAMX); details: for Post-emergence action against ZEAMX in % (crop plant compatibility): 20 g/ha, effect in comparison to untreated controls
Procedure, shortened: as §4

[23] = system: Verconica persica (VERPE); assay: Pre-emergence herbicidal action against VERPE; details: dosage 320 g/ha
Procedure, shortened: as §1

[24] = system: Brassica napus (BRSNW); details: 80 g/ha, crop plant compatibility, in comparison to untreated controls
Procedure, shortened: as §2

[25] = system: Zea mays (ZEAMX); details: pre-emergence, 80 g/ha, crop plant compatibility, in comparison to untreated controls
Procedure, shortened: as §2

[26] = system: Avena fatua (AVEFA); assay: Post-emergence herbicidal action against AVEFA; details: 80 g/ha, visual rating about 3 weeks after treatment
Procedure, shortened: as §3

[27] = system: Lolium rigidum (LOLRI); assay: Post-emergence herbicidal action against LOLRI; details: dosage 80 g/ha
Procedure, shortened: as §3

[28] = 20 g/ha, effect vs untreated controls
[29] = 80 g/ha, effect in comparison to untreated controls

O=C(COc1nn(-c2ccccn2)c(-c2ccc(F)nc2)c1Cl)NS(=O)(=O)CC(F)(F)F [Example I-119]
Pre-emergence action against ALOMY ([1]; 320 g/ha): 100%
Pre-emergence action against AMARE in % ([2]; 320 g/ha): 100%
Pre-emergence action against AVEFA in % ([3]; 320 g/ha): 80%
Pre-emergence action against DIGSA in % ([4]; 80 g/ha, visual scoring after about 3 weeks vs untreated controls): 100%
Pre-emergence action against DIGSA in % ([4]; dosage 320 g/ha): 100%
Pre-emergence action against ECHCG in % ([5]; dosage 80 g/ha): 80%
Pre-emergence action against ECHCG in % ([5]; dosage 320 g/ha): 100%
Pre-emergence action against LOLRI in % [6]: 100%
Pre-emergence action against MATIN in % [7]: 90%
Pre-emergence action against POLCO in % ([8]; dosage 80 g/ha): 80%
Pre-emergence action against POLCO in % ([8]; dosage 320 g/ha): 90%
Pre-emergence action against SETVI in % [9]: 100%
Pre-emergence action against VIOTR in % ([10]; 320 g/ha, Viola tricolor): 90%
Pre-emergence action against VIOTR in % ([10]; dosage 80 g/ha): 80%
Pre-emergence action against ORYSA in % [11]: 10%
Pre-emergence action against TRZAS in % [12]: 20%
Post-emergence action against ABUTH in % [13]: 80%
Post-emergence action against ALOMY in % [14]: 90%
Post-emergence action against AMARE in % [15]: 90%
Post-emergence action against ECHCG in % [16]: 80%
Post-emergence action against PHBPU in % [17]: 80%
Post-emergence action against SETVI in % [18]: 80%
Post-emergence action against VERPE in % [19]: 80%
Post-emergence action against ORYSA in % [20, 28]: 0%
Post-emergence action against ORYSA in % [20, 29]: 10%
Post-emergence action against TRZAS in % [21]: 20%
Post-emergence action against ZEAMX in % (crop plant compatibility) [22]: 10%

C[C@@H](Oc1nn(-c2ncccc2Cl)c(-c2ccc(F)nc2)c1Br)C(=O)O [Example I-25]
Pre-emergence action against ALOMY ([1]; 80 g/ha): 80%
Pre-emergence action against ALOMY ([1]; 320 g/ha): 90%
Pre-emergence action against AMARE in % ([2]; 80 g/ha): 90%
Pre-emergence action against AMARE in % ([2]; 320 g/ha): 100%
Pre-emergence action against AVEFA in % ([3]; 80 g/ha): 90%
Pre-emergence action against AVEFA in % ([3]; 320 g/ha): 100%
Pre-emergence action against ECHCG in % ([5]; dosage 320 g/ha): 90%
Pre-emergence action against LOLRI in % [6]: 100%
Pre-emergence action against MATIN in % [7]: 90%
Pre-emergence action against POLCO in % ([8]; dosage 80 g/ha): 80%
Pre-emergence action against POLCO in % ([8]; dosage 320 g/ha): 90%
Pre-emergence action against SETVI in % [9]: 100%
Pre-emergence action against VERPE in % [23]: 90%
Pre-emergence action against VIOTR in % ([10]; 320 g/ha, Viola tricolor): 100%
Pre-emergence action against VIOTR in % ([10]; dosage 80 g/ha): 100%
Pre-emergence action against BRSNW in % [24]: 10%
Pre-emergence action against ZEAMX in % [25]: 10%
Post-emergence action against ALOMY in % [14]: 90%
Post-emergence action against AVEFA in % [26]: 90%
Post-emergence action against LOLRI in % [27]: 80%
Post-emergence action against VERPE in % [19]: 80%
Post-emergence action against ORYSA in % [20, 28]: 0%
Post-emergence action against ORYSA in % [20, 29]: 10%
Post-emergence action against ZEAMX in % (crop plant compatibility) [22]: 10%
Post-emergence action against ZEAMX in % ([22]; crop plant compatibility, 80 g/ha, effect vs untreated controls): 20%
